Experimental data from patent publication US20050261290A1, “Novel compounds of proline and morpholine derivatives” (priority 2004, published 2005).
pKi: −log10 of the molar value. Where two headings read alike, the source gives them in different places.

Biological target: human 11b-hsd-1 (Homo sapiens, UniProt P28845)
Experiment: Inhibition constant Ki of human 11b-hsd-1 (3H-cortisone to 3H-cortisol conversion, HPLC)
Assay type: biochemical
Details: for pKi: apparent Ki, read-out: Ki app
Procedure: In each well, varying amounts of compounds are incubated with a fixed amount of 11b-hsd-1 (4 nM) and NADPH (500 μM) for 30 to 40 min at room temperature in the assay buffer. The enzyme concentration was determined by titration using reversible tight-binding inhibitors. […] The area of 3H-cortisol is calculated and plotted versus time to determine a linear velocity. […] Where vi, and vo are the rates of cortisol formation in the presence and in the absence of inhibitor, respectively, I is the inhibitor concentration and E is the 11 b-hsd-1 concentration in the assay buffer. […] NADPH, Glucose-6-Phosphate (G6P), and Glucose-6-Phosphate dehydrogenase was purchased from Sigma.

Chain of human 11b-hsd-1 (P28845 whole entry): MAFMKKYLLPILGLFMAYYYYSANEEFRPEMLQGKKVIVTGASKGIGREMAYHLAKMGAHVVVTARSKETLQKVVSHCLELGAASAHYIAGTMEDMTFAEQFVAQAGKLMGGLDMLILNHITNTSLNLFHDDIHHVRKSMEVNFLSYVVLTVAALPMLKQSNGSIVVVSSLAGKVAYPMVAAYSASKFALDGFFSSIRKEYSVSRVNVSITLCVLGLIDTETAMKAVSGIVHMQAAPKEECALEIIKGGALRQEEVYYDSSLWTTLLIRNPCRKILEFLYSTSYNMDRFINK

| SMILES | inhibition at 0.1 µM (0.1 μM compound) | pKi | pKi (human 11b-hsd-1) | inhibition at 0.1 µM (compound at 0.1 μM) | % inh @ 0.1 μM (compound at 0.1 μM) |
| --- | --- | --- | --- | --- | --- |
| COc1ccccc1CNC(=O)[C@H]1CCCN1CCc1ccccc1 [Example 269] | 77.8% | 7.18 |  |  |  |
| Cc1cc(F)ccc1O[C@@H]1CN[C@H](C(=O)NC2C3CC4CC(C3)CC2C4)C1 (stereo partly shown) [Example 356] | 100% | 8.85 |  |  |  |
| O=C(NCc1ccccc1)[C@H]1CCCN1CC1CCCC1 [Example 226] | 82.2% | 7.66 |  |  |  |
| O=C(NC1C2CC3CC(C2)CC1C3)[C@H]1NCC[C@@H]1CC1CCCCC1 (stereo partly shown) [Example 366] | 94.9% | 7.82 |  |  |  |
| O=C(NC1CCCCC1)[C@@H]1C[C@H](Oc2ccc(Cl)c(F)c2)CN1 [Example 373] | 91.8% |  |  |  |  |
| O=C(NCc1ccc(F)cc1F)[C@H]1CCCN1Cc1ccccc1 [Example 236] | 76.8% | 7.18 |  |  |  |
| COC(C)(C)CN1CCC[C@@H]1C(=O)NC1CCCCC1 [Example 88, 1-(2-Methoxy-2-methyl-propyl)-pyrrolidine-2-carboxylic acid cyclohexylamide] |  |  | 8.15 | 94% |  |
| O=C(NC1C2CC3CC(C2)CC1C3)[C@H]1COCCN1CCN1CCCC1 (stereo partly shown) [Example 70] |  |  |  | 74% |  |
| Cc1cccc(CNC(=O)[C@H]2CCCN2CC(C)C)c1 [Example 258] | 90.1% | 7.62 |  |  |  |
| CCN1C[C@H](O)C[C@@H]1C(=O)NC1C2CC3CC(C2)CC1C3 (stereo partly shown) [Example 24] |  |  | 8.85 | 100% |  |
| CC(C)CN1CCC[C@@H]1C(=O)NCc1ccccn1 [Example 219] | 86.6% | 6.77 |  |  |  |
| O=C(NCc1ccccc1Cl)[C@H]1CCCN1CCC(F)(F)F [Example 265] | 86% | 8.39 |  |  |  |
| O=C(NC1C2CC3CC(C2)CC1C3)[C@@H]1C[C@H](Oc2ccc(Cl)c(F)c2)CN1 (stereo partly shown) [Example 365] | 100% | 9.00 |  |  |  |
| CC(C)CN1CCOC[C@@H]1C(=O)NC1Cc2ccccc2C1 [Example 307] | 100% | 7.89 |  |  |  |
| O=C(NC1C2CC3CC(C2)CC1C3)[C@H]1C[C@@H](O)CN1CC1CCCC1 (stereo partly drawn) [Example 28, (4R)-N-2-adamantyl-1-cyclopentylmethyl-4-hydroxy-D-prolinamide] |  |  | 9.00 | 100% |  |
| CCC1CCCCN1C(=O)[C@H]1CCCN1Cc1ccc(Cl)cc1 (stereo partly shown) [Example 197] | 73.2% | 7.30 |  |  |  |
| O=C(NC1C2CC3CC(C2)CC1C3)[C@H]1C[C@@H](O)CN1CC1CCOCC1 (stereo partly shown) [Example 48] |  |  |  | 83% |  |
| CC(C)CN1CCC[C@@H]1C(=O)N[C@H](C)c1ccc(Cl)cc1 [Example 298] | 100% | 8.75 |  |  |  |
| CCCN1CCC[C@@H]1C(=O)NC1CC2CCC1C2 (stereo partly shown) [Example 92] |  |  |  |  | 100% |
| CCCN1CCC[C@@H]1C(=O)N[C@@H]1CCc2ccccc21 [Example 286] | 91.4% | 8.24 |  |  |  |
| CC(C)CN1CCOC[C@@H]1C(=O)NCc1ccc(F)cc1F [Example 281] | 84.9% | 7.32 |  |  |  |
| CCCN1CCC[C@H](C(=O)NC2C3CC4CC(C3)CC2C4)C1 (stereo partly shown) [Example 125] |  |  |  | 81% |  |
| O=C(NC1C2CC3CC(C2)CC1C3)[C@@H]1C[C@H](Oc2ccccc2F)CN1 (stereo partly shown) [Example 341] | 100% | 9.15 |  |  |  |
| CC(C)CN1CSC[C@H]1C(=O)N(C)C1CCCCC1 [Example 195] | 100% | 7.89 |  |  |  |

| SMILES | inhibition at 0.1 µM (0.1 μM compound) | pKi | pKi (human 11b-hsd-1) | inhibition at 0.1 µM (compound at 0.1 μM) | % inh @ 0.1 μM (compound at 0.1 μM) |
| --- | --- | --- | --- | --- | --- |
| CCc1ccccc1O[C@@H]1CN[C@H](C(=O)NC2C3CC4CC(C3)CC2C4)C1 (stereo partly shown) [Example 350] | 100% | 8.66 |  |  |  |
| CC(C)CN1CCC[C@@H]1C(=O)NC1CCCCC1 [Example 86] |  |  | > 9.00 | 100% |  |
| O=C(NC1CCCCC1)[C@H]1CCCN1Cc1ccccc1 [Example 282] | 100% | 8.63 |  |  |  |
| O=C(NCc1ccc(F)cc1)[C@H]1CCCN1Cc1ccccc1Cl [Example 232] | 71.5% | 7.33 |  |  |  |
| CC(C)CN1CCOC[C@@H]1C(=O)N[C@H](C)c1ccc(Cl)cc1 [Example 317] | 91.1% | 8.06 |  |  |  |
| O=C(NC12CC3CC(CC(C3)C1)C2)C1COCCN1CC1CCOCC1 (stereo not shown) [Example 184] |  |  | 8.49 | 100% |  |
| CN1CCC(CN2C[C@H](O)C[C@@H]2C(=O)NC2CCCCC2)CC1 [Example 42, (4R)-N-cyclohexyl-4-hydroxy-1-[(1-methylpiperidin-4-yl)methyl]-D prolinamide] |  |  |  | 0% |  |
| O=C(NC1C2CC3CC(C2)CC1C3)[C@@H]1C[C@H](Oc2cccc(C(F)(F)F)c2)CN1 (stereo partly shown) [Example 357] | 100% | 8.68 |  |  |  |
| N#Cc1ccccc1CN1CCC[C@@H]1C(=O)N[C@@H]1CCc2ccccc21 [Example 284] | 93.1% | 7.94 |  |  |  |
| Cc1cc(Cl)ccc1O[C@@H]1CN[C@H](C(=O)NC2C3CC4CC(C3)CC2C4)C1 (stereo partly shown) [Example 349] | 100% | 8.74 |  |  |  |
| CN(C(=O)C1COCCN1Cc1ccccc1)C1CCCCC1 (stereo not shown) [Example 177] |  |  | 7.74 | 92.2% |  |
| CC(C)CN1CCOC[C@@H]1C(=O)NCc1cccc(F)c1 [Example 33] |  |  |  | 65% |  |
| O=C(NC1C2CC3CC(C2)CC1C3)[C@@H]1C[C@H](Oc2cc(F)c(F)c(F)c2)CN1 (stereo partly shown) [Example 362] | 100% | 8.96 |  |  |  |
| CCCN1CCC[C@@H]1C(=O)NC1CCCCC1C (stereo partly shown) [Example 55] |  |  | 8.43 | 100% |  |
| O=C(NC1C2CC3CC(C2)CC1C3)[C@H]1COCCN1Cc1ccccc1 (stereo partly shown) [Example 2] |  |  | 8.62 | 100% |  |
| CCc1ccc(O[C@@H]2CN[C@H](C(=O)NC3C4CC5CC(C4)CC3C5)C2)c(OC)c1 (stereo partly shown) [Example 354] | 100% | 8.68 |  |  |  |
| CC(C)CN1CCOC[C@@H]1C(=O)N(C)Cc1ccc(F)cc1 [Example 37] |  |  | 7.41 | 100% |  |
| CCN1CCOC[C@@H]1C(=O)NC1C2CC3CC(C2)CC1C3 (stereo partly drawn) [Example 1, (R)-4-Ethyl-morpholine-3-carboxylic acid adamantan-2-ylamide] |  |  | 8.68 | 100% |  |
| O=C(NCc1ccc(Cl)cc1)[C@H]1CCCN1Cc1ccccc1 [Example 213] | 78% | 6.92 |  |  |  |
| CC(C)(C)OC(=O)N1CCC[C@@H]1CN1CCC[C@@H]1C(=O)NC1C2CC3CC(C2)CC1C3 (stereo partly shown) [Example 113] |  |  |  | 100% |  |
| CCCN1CCC[C@@H]1C(=O)NC12C3C4C1C1C2C3C41C (stereo partly shown) [Example 123] |  |  |  | 100% |  |
| O=C(N[C@H]1c2ccccc2C[C@H]1O)[C@H]1COCCN1Cc1ccccc1 [Example 301] | 89.2% | 7.95 |  |  |  |
| O=C(NC1C2CC3CC(C2)CC1C3)[C@H]1NCC[C@@H]1Cc1ccccc1 (stereo partly shown) [Example 369] | 100% | 8.18 |  |  |  |
| CCOc1ccccc1CNC(=O)[C@H]1CCCN1CC(C)C [Example 53] |  |  | 8.34 | 100% |  |

| SMILES | inhibition at 0.1 µM (0.1 μM compound) | pKi | pKi (human 11b-hsd-1) | inhibition at 0.1 µM (compound at 0.1 μM) | % inh @ 0.1 μM (compound at 0.1 μM) |
| --- | --- | --- | --- | --- | --- |
| Cc1ncccc1CNC(=O)[C@H]1CCCN1CC(C)C [Example 40] |  |  | 7.72 | 100% |  |
| CC1(C)CC(NC(=O)C2COCCN2Cc2cccc(C#N)c2)CC(C)(C)C1 (stereo not shown) [Example 187] |  |  | 8.52 | 100% |  |
| O=C(NC1CCCCC1)[C@H]1CCCN1CC1CC1 [Example 102] |  |  | 8.15 | 91% |  |
| C[C@@H](NC(=O)[C@H]1CCCN1Cc1ccccc1)c1ccc(Cl)cc1 [Example 296] | 95.7% | 7.94 |  |  |  |
| O=C(NCc1ccc(F)cc1)[C@H]1CCCN1Cc1ccc(Cl)cc1 [Example 235] | 83.8% | 7.60 |  |  |  |
| CC(C)CN1CC[C@H](O)[C@H]1C(=O)NC12CC3CC(CC(C3)C1)C2 [Example 211] | 80.2% | 7.49 |  |  |  |
| CCCN1CCC[C@@H]1C(=O)NCC1CCCC1 [Example 94] |  |  | 7.96 | 86% |  |
| O=C(NC1C2CC3CC(C2)CC1C3)[C@H]1CCCN1Cc1ccccn1 (stereo partly shown) [Example 41] |  |  | > 9.00 | 100% |  |
| C[C@@H](CN1CCC[C@@H]1C(=O)NC1C2CC3CC(C2)CC1C3)NC(=O)OC(C)(C)C (stereo partly shown) [Example 154] |  |  |  | 96% |  |
| CN(C(=O)[C@H]1CCCN1Cc1ccc(Cl)cc1)C1CCCCC1 [Example 191] |  |  | 7.55 | 83.7% |  |
| CC(C)CN1C[C@H](O)C[C@@H]1C(=O)NCC1CCCCC1 [Example 337] | 97.8% | 7.89 |  |  |  |
| COc1ccccc1CNC(=O)[C@H]1CCCN1CC1CCCC1 [Example 261] | 100% | 7.60 |  |  |  |
| O=C(NC1C2CC3CC(C2)CC1C3)[C@H]1CCCN1Cc1ccn[nH]1 (stereo partly shown) [Example 126] |  |  |  | 71% |  |
| CCCN1CCOC[C@@H]1C(=O)NC1CCCCC1 [Example 331] | 86.6% | 7.59 |  |  |  |
| O=C(NC1C2CC3CC(C2)CC1C3)[C@H]1CCCN1CC1CCNC1 (stereo partly shown) [Example 142] |  |  |  | 100% |  |
| CC(C)CN1CCC[C@@H]1C(=O)NCc1ccc(F)cc1 [Example 222] | 100% | 8.16 |  |  |  |
| O=C(NC12CC3CC(CC(C3)C1)C2)C1COCCN1CC1CCCC1 (stereo not shown) [Example 183] |  |  | 8.68 | 100% |  |
| O=C(NC1CCCCC1)[C@@H]1C[C@H](Oc2c(F)cc(F)cc2F)CN1 [Example 372] | 97.4% |  |  |  |  |
| CC(C)CN1CCC[C@@H]1C(=O)NC12C3C4C1C1C2C3C41C (stereo partly shown) [Example 122] |  |  |  | 100% |  |
| O=C(NCc1ccccc1)[C@H]1CCCN1CC1CC1 [Example 224] | 90% | 6.72 |  |  |  |
| COc1ccccc1CNC(=O)[C@H]1CCCN1CCC(F)(F)F [Example 263] | 77.5% | 7.21 |  |  |  |
| C[C@@H](O)CN1CCC[C@@H]1C(=O)NC1C2CC3CC(C2)CC1C3 (stereo partly shown) [Example 118] |  |  |  | 100% |  |
| O=C(NC1CCCCC1)[C@H]1CCCN1CC1CCCC1 [Example 50] |  |  | 8.89 | 100% |  |
